Experimental data reported in patent publication US6881756B2, “Method for treating skin disorders” (Johnson & Johnson Consumer Companies, Inc., priority 2001, dated 2005).

Experiments:
Albino male CD-1 mice [1] = assay: Neurosensory (neurogenic) inflammation model: resiniferatoxin-induced ear edema; assay type: in vivo, mouse; details: for activity in the neurosensory inflammation model (in words): resiniferatoxin ear edema model, overall; for % Inhibition of the Ear Edema: 20 μl to left ear, biopsy weight at 30 minutes
Text: Neurosensory inflammation, also referred to as neurogenic inflammation, is a type of inflammation triggered by sensory nerve activation in skin. Certain natural substances that act on vanilloid receptors cause the nerves (C-fibers) to release inflammatory neuropeptides such as substance P and calcitonin gene-related peptide. In mouse skin, an edema response rapidly occurs upon application of either the vanilloid receptor activators, capsaicin or resiniferatoxin. Compounds that inhibit the response to neurosensory stimulation could be useful as topical analgesics, itch inhibitors or soothing agents for irritated or damaged skin. See U.S. Pat. No. 6,090,811.
Albino male CD-1 mice, 7-9 weeks old, were used. Resiniferatoxin alone (0.05%) or a combination of 0.05% resiniferatoxin with test compound was made in acetone. A 20-μl volume of the solutions was applied to the left ears (10 mice per treatment group). The right ear was not treated. The mice were sacrificed by CO2 inhalation 30 minutes after applying the solutions. The left and right ears were removed and a 7-mm biopsy was removed from each ear and weighed. The difference in biopsy weights between the right and left ear was calculated. The percent inhibition was calculated by comparing treatments to resiniferatoxin alone. Anti-edema effects of compounds are evident as an inhibition of the increase in ear weight.

Albino male CD-1 mice [2] = assay: Allergic contact dermatitis model: oxazolone-induced ear swelling; assay type: in vivo, mouse; details: for % Inhibition of the Ear Swelling Response: 20 μL to left ear 1 hour after oxazolone challenge, ear biopsy weight at 24 hours
Experimental: Allergic contact dermatitis is an animal model of skin inflammation that mimics many aspects of human skin inflammation. See Young J M, De Young L M, Cutaneous Models of Inflammation for the Evaluation of Topical and Systemic Pharmacological Agents; In: Pharmacological Methods in the Control of Inflammation, Alan R. Liss, Inc, pp. 215-231 (1989). […] The inflammatory response is established by using oxazolone as the chemical sensitizer. A topical anti-inflammatory agent is assessed by measuring its ability to suppress the ear swelling reaction after applying a challenge dose of oxazolone to the ear followed by the test agent.
In this assay, the totarol (Mende-DEK Limited, Masterton, New Zealand) was evaluated against hydrocortisone, a steroid known to inhibit allergic contact dermatitis. Albino male CD-1 mice, 7-9 weeks old, were induced on the shaved abdomen with 50 μL of 3% oxazolone in acetone/corn oil (Day 0). On Day 5, a 20 μL volume of 2% oxazolone in acetone was applied to the dorsal left ear of the mouse. Test agents were applied to the left ear (20 μL) 1 hour after oxazolone challenge in a 70% ethanol/30% propylene glycol vehicle. The right ear was not treated. The mice were sacrificed by CO2 inhalation 24 hours after the oxazolone challenge, the left and right ears were removed and a 7-mm biopsy was taken from each ear and weighed. Anti-inflammatory effects of compounds are evident as an inhibition of the increase in ear weight.

SMILES | activity in the neurosensory inflammation model (in words) (Albino male CD-1 mice [1]) | % Inhibition of the Ear Edema (Albino male CD-1 mice [1]; topical dose 0.5% w/v with 0.05% resiniferatoxin in acetone) | % Inhibition of the Ear Edema (Albino male CD-1 mice [1]; topical dose 1% w/v with 0.05% resiniferatoxin in acetone) | topical anti-inflammatory activity (in words) (Albino male CD-1 mice [2]; oxazolone allergic contact dermatitis model, overall) | % Inhibition of the Ear Swelling Response (Albino male CD-1 mice [2]; topical dose 0.03% w/v) | % Inhibition of the Ear Swelling Response (Albino male CD-1 mice [2]; topical dose 0.3% w/v) | % Inhibition of the Ear Swelling Response (Albino male CD-1 mice [2]; topical dose 1% w/v) | activity compared with hydrocortisone (in words) (Albino male CD-1 mice [2]; totarol at its two highest doses vs highest dose of hydrocortisone) | % Inhibition of the Ear Swelling Response (Albino male CD-1 mice [2]; topical dose 0.001% w/v) | % Inhibition of the Ear Swelling Response (Albino male CD-1 mice [2]; topical dose 0.01% w/v) | % Inhibition of the Ear Swelling Response (Albino male CD-1 mice [2]; topical dose 0.1% w/v)
CCCCC/C=C\C/C=C\C/C=C\C/C=C\CCCC(=O)NCc1ccc(O)c(OC)c1 [Arvanil, reference compound] | also active | 26.8% |  |  |  |  |  |  |  |  | 
CC(C)c1c(O)ccc2c1CC[C@H]1C(C)(C)CCC[C@]21C [Totarol] | highly effective |  | 46.6% | highly effective as a topical anti-inflammatory agent with dose-dependent inhibition of the inflammatory response | 44.6% | 80.0% | 82.3% | equivalent in activity to the highest dose of hydrocortisone |  |  | 
C[C@]12CCC(=O)C=C1CC[C@@H]1[C@@H]2[C@@H](O)C[C@@]2(C)[C@H]1CC[C@]2(O)C(=O)CO [Hydrocortisone, reference compound] |  |  |  |  |  |  |  |  | 36.0% | 65.5% | 84.2%
